In brackets after ≈: the same amount, converted by molar mass.
Columns and labels:
P-388 = experiment: IC50 growth inhibition, P-388 suspension culture; assay type: cell-based, DBA/2 mouse; details: Mus musculus, P388, 72 h, three days, 37° C., 10% CO2, approximate IC50, in duplicate
Method: (§1) Cell cultures: The cells were kept in logarithmic phase of growth in Eagle's Minimum Essential Medium, with Earle's Balanced Salts, with L-gluatamine 2.0 mM, with non-essential amino acids and without sodium bicarbonate (EMEM-NEAA); supplemented with Fetal Calf Serum (FCS) 10% sodium bicarbonate 10^-2 and with 0.1 g/l penicillin-G+-streptomycin sulfate.
(§2) To determine and to compare the antitumor activity of these compounds, a simple screening process was carried out using an adapted form of the method described by Bergeron et al. (1984) ((1) Raymond J. Bergeron, Paul F. Cavanaugh, Jr., Steven J. Kline, Robert G. Hughes, Jr., Gary T. Elliot and Carl W. Porter. Antineoplastic and antiherpetic activity of spermidine catecholamide iron chelators. Biochem. Bioph. Res. Comm. 1984, 121 (3), 848-854; (2) Alan C. Schroeder, Robert G. Hughes, Jr. and Alexander Bloch. Effects of Acyclic pyrimidine nucleoside analogues. J. Med. Chem. 1981, 24, 1078-1083). The antitumor cells used have been P-388 (culture in DBA/2 mouse lymphoid neoplasm suspension), A-549 (human lung carcinoma monolayer culture); HT-29 human colon carcinoma monolayer culture) and MEL (human melanoma monolayer culture).
The P-388 cells were seeded in 16 mm cups at 1×10^4 cells per cup in aliquots at 1 ml. MEM 5FCS that contains the indicated drug concentration. Separately, a batch of cultures without any drug was seeded as a growth control to ensure that the cells were kept in a logarithmic phase of growth. All the determinations were carried out in duplicate. After three days of incubation at 37° C., 10% CO2 in an atmosphere with 98% humidity, the approximate IC50 was determined by comparing the growth in the cups with the drug and the control cups.

A-549 = experiment: IC50 growth inhibition, A-549 monolayer culture (crystal violet); assay type: cell-based; details: Homo sapiens, A549, 72 h, three days, 37° C., 10% CO2, crystal violet 0.1%, approximate IC50, in duplicate
Method: as §1, §2
(§3) The A-549, HT-29 and MEL-28 cells were seeded in 16 mm cups at […] cells per cup in aliquots of […] of MEM 10FCS that contain the indicated drug concentration. Separately, a batch of cultures without any drug was seeded as a growth control to ensure that the cells were kept in a logarithmic phase of growth. All the determinations were carried out in duplicate. After three days of incubation at 37° C., 10% CO2 in an atmosphere with 98% humidity, the cups were stained with crystal violet 0.1%. The approximate IC50 was determined by comparing the growth in the cups with the drug and the growth in the control cups.

HT-29 = experiment: IC50 growth inhibition, HT-29 monolayer culture (crystal violet); assay type: cell-based; details: Homo sapiens, 72 h, three days, 37° C., 10% CO2, crystal violet 0.1%, approximate IC50, in duplicate
Method: as §1, §2, §3

MEL-28 = experiment: IC50 growth inhibition, MEL-28 monolayer culture (crystal violet); assay type: cell-based; details: Homo sapiens, SK-MEL-28, 72 h, three days, 37° C., 10% CO2, crystal violet 0.1%, approximate IC50, in duplicate
Method: as §1, §2, §3

Gram positive bacteria = details: cited from earlier work
thymidilate synthetase = details: cited from earlier work

| IC50 (A-549) [µg/mL] | IC50 (HT-29) [µg/mL] | SMILES | IC50 (P-388) [µg/mL] | IC50 (MEL-28) [µg/mL] | activity against Gram positive bacteria (Gram positive bacteria) | capacity to inhibit thymidilate synthetase (thymidilate synthetase) |
| --- | --- | --- | --- | --- | --- | --- |
| 0.025 (≈ 0.0879 µM) | 0.1 (≈ 0.352 µM) | CCc1cc2c([nH]c1=O)C(=O)c1[nH]c(=O)cc(C)c1C2=O [(I-c)] | 0.1 (≈ 0.352 µM) | 0.1 (≈ 0.352 µM) | – | – |
| 0.1 (≈ 0.406 µM) | 0.1 (≈ 0.406 µM) | O=C1c2cc(F)cnc2C(=O)c2ncc(F)cc21 [(I-i), 3,6-difluoro-1,8-diazaanthracen-9,10-dione] | 0.025 (≈ 0.102 µM) | 0.025 (≈ 0.102 µM) | – | – |
| 0.02 (≈ 0.0706 µM) | 0.02 (≈ 0.0706 µM) | Cc1cc(=O)[nH]c2c1C(=O)c1cc(N(C)C)cnc1C2=O [(I-f), 6-dimethylamino-4-methyl-1H-1,8-diazaanthracen-2,9,10-trione] | 0.02 (≈ 0.0706 µM) | 0.02 (≈ 0.0706 µM) | – | – |
| 0.05 (≈ 0.138 µM) | 0.05 (≈ 0.138 µM) | Cc1cc(=O)[nH]c2c1C(=O)C1=C(NC=CC1c1ccccc1[N+](=O)[O-])C2=O (stereo not shown) [(I-g), 4-methyl-5-(2-nitrophenyl)-5,8-dihydro-1H-1,8-diazaanthracen-2,9,10-trione] | 0.5 (≈ 1.38 µM) | 0.1 (≈ 0.275 µM) | – | – |
| 0.25 (≈ 0.921 µM) | 1 (≈ 3.69 µM) | CC1=C(C)CC2C(=O)c3c(C)cc(=O)[nH]c3C(=O)C2C1 (stereo not shown) [(I-a), 4,6,7-trimethyl-5,8,8a,10a-tetrahydro-1H-1-azaathracen-2,9,10-trione] | 1 (≈ 3.69 µM) | – | – | – |
| 5 (≈ 15.8 µM) | 10 (≈ 31.6 µM) | Cc1cnc2c(c1)C(=O)c1cc(-c3ccccc3)c(=O)[nH]c1C2=O [(I-j), 6-methyl-3-phenyl-1H-1,8-diazaanthracen-2,9,10-trione] | 2.5 (≈ 7.9 µM) | > 10 | – | – |
| 0.05 (≈ 0.185 µM) | 0.05 (≈ 0.185 µM) | Cc1cc(=O)[nH]c2c1C(=O)c1cc(C)c(=O)[nH]c1C2=O [(I-h), 3,5-dimethyl-1,8-dihydro-1,8-diazaanthracen-2,7,9,10-tetraone] | 0.05 (≈ 0.185 µM) | 0.025 (≈ 0.0925 µM) | – | – |
| 0.25 (≈ 0.935 µM) | 10 (≈ 37.4 µM) | CCOc1nc2c(cc1C)C(=O)c1ccccc1C2=O [(I-b), 2-ethoxy-3-methyl-1-azaanthracen-9,10-dione] | 5 (≈ 18.7 µM) | 5 (≈ 18.7 µM) | – | – |
| 0.05 (≈ 0.22 µM) | 0.25 (≈ 1.1 µM) | O=C1c2ccccc2C(=O)c2ncc(F)cc21 [(I-l), 3-fluoro-1-azaanthracen-9,10-dione] | 0.25 (≈ 1.1 µM) | 0.05 (≈ 0.22 µM) | – | – |
| 0.25 (≈ 1.03 µM) | 0.25 (≈ 1.03 µM) | CC1C(F)=CNC2=C1C(=O)c1ccccc1C2=O (stereo not shown) [(I-k), 3-fluoro-4-methyl-1,4-dihydro-1-azaanthracen-9,10-dione] | 0.25 (≈ 1.03 µM) | 0.12 (≈ 0.493 µM) | – | – |
| – | – | CCCc1c2c([nH]c(=O)c1C)C(=O)c1[nH]c(=O)c(C)c(CCC)c1C2=O [Diazaquinomycin A] | – | – | goods activity against Gram positive bacteria | capacity to inhibit thymidilate synthetase |
| 0.02 (≈ 0.0775 µM) | 0.05 (≈ 0.194 µM) | Cc1cc(=O)[nH]c2c1C(=O)c1cc(F)cnc1C2=O [(I-e), 6-fluoro-4-methyl-1H,1,8-diazaanthracen-2,9,10-trione] | 0.005 (≈ 0.0194 µM) | 0.05 (≈ 0.194 µM) | – | – |

| SMILES | IC50 (A-549) [µg/mL] | IC50 (HT-29) [µg/mL] | IC50 (P-388) [µg/mL] | IC50 (MEL-28) [µg/mL] | activity against Gram positive bacteria (Gram positive bacteria) | capacity to inhibit thymidilate synthetase (thymidilate synthetase) |
| --- | --- | --- | --- | --- | --- | --- |
| CC(=O)c1cc2c([nH]c1=O)C(=O)c1ncc(C)cc1C2=O [(I-d)] | 0.25 (≈ 0.886 µM) | 1 (≈ 3.54 µM) | 1 (≈ 3.54 µM) | 0.25 (≈ 0.886 µM) | – | – |
